# Laboratory results reported in ChEMBL document CHEMBL1126000, “Synthesis of 2-substituted-1,3,4-thiadiazole-5-sulphonamides as novel water-soluble inhibitors of carbonic anhydrase” (Bioorg Med Chem Lett, 1991).
# Values joined by “and” are separate entries in the source; they are usually repeats but may differ in a detail not shown here. Equal values may be shown once.
# Legend:
# Carbonic anhydrase = Carbonic anhydrase (Bos taurus, UniProt P00921+Q95323+P18915+Q3SZX4)
# Description: In vitro concentration that causes 50% inhibition of carbonic anhydrase carbonate hydro-lyase (EC.4.2.1.1) isolated from bovine erythrocyte
# [1] = Solubility in water, at 20 degrees Centigrade.; assay type: physicochemical
SMILES,IC50 (Carbonic anhydrase),"solubility ([1]; water, read-out: Solubility) [mM]",solubility ([1]; buffer) [mM]
C[C@H](NC(=O)OCc1ccccc1)C(=O)Nc1nnc(S(N)(=O)=O)s1,7 nM,< 0.1,–
CC(C)COC(=O)Nc1nnc(S(N)(=O)=O)s1,550 nM and 570 nM,103,–
NS(=O)(=O)c1nnc(NC(=O)[C@H](Cc2ccccc2)NC(=O)OCc2ccccc2)s1,5 nM,< 0.1,–
Br.NCC(=O)Nc1nnc(S(N)(=O)=O)s1,–,896,–
Br.N[C@@H](Cc1ccccc1)C(=O)Nc1nnc(S(N)(=O)=O)s1,30 nM,132,–
NS(=O)(=O)c1nnc(NC(=O)CNC(=O)OCc2ccccc2)s1,8 nM,< 0.1,–
Br.C[C@H](N)C(=O)Nc1nnc(S(N)(=O)=O)s1,9 nM,701,–
NCCCCC(=O)Nc1nnc(S(N)(=O)=O)s1,440 nM and 370 nM,–,0.7
CC(=O)Nc1nnc(S(N)(=O)=O)s1 [ACETAZOLAMIDE],–,< 0.1,–
